In patent US11634434B2, “Bifunctional alpha-synuclein binding agents and uses thereof” (University of Saskatchewan, priority 2016, dated 2023):
Where two headings read alike, the source gives them in different places.

Key:
yeast strain 2AS = assay: Yeast recovery assay, growth of 2AS after 6 hours galactose induction; assay type: cell-based
[1] = tested on: protein aggregation in substantia nigra; assay: Thioflavin S staining of substantia nigra of ASIA-treated rats; assay type: in vivo, rat
Protocol: (§1) Rats are subjected to 7-day chronic injection of 3 mg/kg of each test compound, and a forced swim test is conducted after the seventh day to measure motor deficits. […] For a second round of studies, rats are divided into four treatment groups, and the same experiments were repeated:
Tissue sections of substantia nigra from each of the treatment groups in the rat studies were evaluated for the presence of tyrosine hydroxylase, DNA (using the nuclear stain DAPI) and alpha-synuclein using immunohistochemistry. After behavioural tests were completed, the rats were euthanized, perfused and fixed in 4% paraformaldehyde. 40 μm brain slices were utilized for the immunohistochemistry procedure. Anti-Tyrosine Hydroxylase—a primary antibody for tyrosine positive neurons, host species rabbit, Millipore, Sigma Aldrich. DAPI—nuclear stain already pre-conjugated (NucBlue Fixed Cell Stain ReadyProbe reagent, Thermo Fisher Scientific). Anti-Alpha Synuclein—primary antibody for Anti-Synuclein, host species mouse, Abcam. Primary antibodies were diluted 1:500. Alexa Fluoro 488 Donkey anti-rabbit IgG—secondary antibody with fluorescent tag, Invitrogen, Thermo Fisher Scientific. Alexa Fluoro 594 Goat anti-mouse IgG—secondary antibody with fluorescent tag, Life Technologies, Thermo Fisher Scientific. Secondary antibodies were diluted 1:1000. Thioflavin S—stain for alpha-synuclein aggregates, Sigma Aldrich. […]

[2] = tested on: yeast strain 2AS (2 copies of AS-GFP gene); assay type: cell-based
Protocol: (§2) Third, the drugs were assayed in a yeast model of Parkinson's Disease, which expresses an alpha-synuclein-Green Fluorescent Protein (AS-GFP) construct under the control of a galactose promoter.
Construction of the 1AS and 2AS strains has been described in detail previously.^55 Strains were grown in YPD supplemented with 30 μg/ml of all amino acids. The OD600 was adjusted to 0.05 in drop-out media (no uracil) at 30° C. Drugs were dissolved in methanol at 0.01 micromolar, 0.1 micromolar, 1 micromolar or 10 micromolar followed by addition of 100 micromolar or 5 mM galactose to a final volume of 10 mL.

[3] = tested on: alpha-synuclein-GFP aggregation in yeast strain 2AS; assay type: cell-based; conditions: 1 micromolar compound, 5 mM galactose; for AS-GFP foci / fluorescence pattern: up to 12 hours
Protocol: as §2
For Analysis of AS-GFP distribution, the 2AS strain was grown overnight in drop-out media. After normalization of culture density, galactose was administered to a final concentration of 5 mM. […] For the yeast recovery assay, yeast cells were obtained after 6 hours induction with 5 mM galactose concentration, washed in galactose free media and the compounds were added to a final concentration of 1 micromolar in a 2 mL reaction mixture. The culture was incubated at 30° C. for 3, 6, and 9 hour intervals. Images were obtained at each interval using an Olympus Infinity (BX51) fluorescence microscope at 100× magnification.

alpha-synuclein [4] = molecular target: T1, alpha-synuclein (Homo sapiens, UniProt P37840); assay: Isothermal titration calorimetry (ITC) binding to alpha-synuclein; conditions: for increase of Ka for a 10-fold decrease in ionic strength: 100 mM KCl versus 1.0M KCl; for # Binding sites: Table 2; for Bind to N and C?: binds to both N and C portions of alpha-synuclein; for binding constants as measured by ITC, order of magnitude: summary statement; for Kd: read-out: Ka (converted); on Bind to N and C?: key: Y indicates yes; N indicates no
Protocol: (§3) Nanopore analysis and isothermal titration calorimetry were performed as described previously.^21,54

[5] = tested on: alpha-synuclein in substantia nigra; assay: Immunohistochemistry of alpha-synuclein in substantia nigra of ASIA-treated rats; assay type: in vivo, rat; conditions: 7 days of chronic injections
Protocol: (§4) male Sprague-Dawley rats are used (200 g-300 g). All animals are handled ethically following approved protocols. For the first round of studies, rats are divided into five treatment groups:
as §1
Tissue sections of substantia nigra from each of the treatment groups in the rat studies were evaluated for the presence of tyrosine hydroxylase, DNA (using the nuclear stain DAPI) and alpha-synuclein using immunohistochemistry. After behavioural tests were completed, the rats were euthanized, perfused and fixed in 4% paraformaldehyde. 40 μm brain slices were utilized for the immunohistochemistry procedure. Anti-Tyrosine Hydroxylase—a primary antibody for tyrosine positive neurons, host species rabbit, Millipore, Sigma Aldrich. DAPI—nuclear stain already pre-conjugated (NucBlue Fixed Cell Stain ReadyProbe reagent, Thermo Fisher Scientific). Anti-Alpha Synuclein—primary antibody for Anti-Synuclein, host species mouse, Abcam. Primary antibodies were diluted 1:500. Alexa Fluoro 488 Donkey anti-rabbit IgG—secondary antibody with fluorescent tag, Invitrogen, Thermo Fisher Scientific. Alexa Fluoro 594 Goat anti-mouse IgG—secondary antibody with fluorescent tag, Life Technologies, Thermo Fisher Scientific. Secondary antibodies were diluted 1:1000. Thioflavin S—stain for alpha-synuclein aggregates, Sigma Aldrich. Thioflavin S stock concentration at 5 mg/ml. Final dilution 1:100.
Tyrosine hydroxylase is a marker for dopaminergic neurons and is used to confirm that the desired cells are being imaged. DAPI (4′,6-diamidino-2-phenylindole) is a stain that binds to A-T rich regions in DNA, and is used to identify cell nuclei. Thioflavin S is used to stain aggregated proteins such as amyloid plaques. A higher level of staining with thioflavin S is indicative of a higher degree of protein aggregation.

[6] = tested on: preformed alpha-synuclein-GFP foci in yeast strain 2AS; assay: Yeast recovery assay, fluorescence microscopy of preformed AS-GFP foci; assay type: cell-based; conditions: for effect on preformed large foci of alpha-synuclein: compound added 6 hours after induction with 5 mM galactose
Protocol: For Analysis of AS-GFP distribution, the 2AS strain was grown overnight in drop-out media. After normalization of culture density, galactose was administered to a final concentration of 5 mM. Fluorescence images were obtained at zero time, 3 hours, 6 hours, 9 hours and 12 hours. For the yeast recovery assay, yeast cells were obtained after 6 hours induction with 5 mM galactose concentration, washed in galactose free media and the compounds were added to a final concentration of 1 micromolar in a 2 mL reaction mixture. The culture was incubated at 30° C. for 3, 6, and 9 hour intervals. Images were obtained at each interval using an Olympus Infinity (BX51) fluorescence microscope at 100× magnification.

[7] = tested on: male Sprague-Dawley rats with increased alpha-synuclein expression; assay: Forced swim test in ASIA-treated rats; assay type: in vivo, rat; conditions: for success in forced swim test / vigor in forced swim test: last three minutes of the test
Protocol: as §4, §1
The forced swim test is carried out by immersing the rat in water that is sufficiently deep to force the rat to swim. The forced swim test is scored based on the following criteria:
Vigor and success are measures of motor function. Immobility is thought to be a measure of depression.^59 Based on videos of the forced swim test, the amount of time that each rat was motionless was calculated as a form of scoring depression for each treatment. Statistical analysis was carried out using an ordinary one-way ANOVA and Tukey multiple comparisons test.

alpha-synuclein [8] = molecular target: T1, alpha-synuclein; assay: Nanopore analysis of alpha-synuclein (blockade current histograms); assay type: binding; conditions: 1 micromolar alpha-synuclein, 20 micromolar compound; for nanopore profile (bumping peak / binding): FIG. 3
Protocol: The bifunctional molecules were characterized by four different methods. […] If the compound causes a more compact conformation, then the alpha-synuclein can no longer translocate and it simply bumps into the pore giving rise to a very small change in the blockade current.^44-46
as §3

alpha-synuclein [9] = molecular target: T1, alpha-synuclein; conditions: 10 micromolar compound, shown previously; cited from earlier work
[10] = 1 micromolar compound added after 6 hours of 5 mM galactose and wash
[11] = 1 micromolar compound + 5 mM galactose
[12] = ITC in 1.0M KCl, bifunctional molecules (or monomers) per alpha-synuclein molecule, best fit

Structure (SMILES) | growth of 2AS yeast [2, 11] | AS-GFP foci / fluorescence pattern [3] | increase of Ka for a 10-fold decrease in ionic strength (alpha-synuclein [4]) | # of Binding sites (alpha-synuclein [4]; ITC in 100 mM KCl) | Ka (alpha-synuclein [4]; ITC in 100 mM KCl) [M⁻¹] | Ka (alpha-synuclein [4]; ITC in 1.0M KCl) [M⁻¹] | # of Binding sites (alpha-synuclein [4]; [12]) | # Binding sites (alpha-synuclein [4]) | Ka (alpha-synuclein [4]; Table 2, ITC) [M⁻¹] | Bind to N and C? (alpha-synuclein [4]) | binding constants as measured by ITC, order of magnitude (alpha-synuclein [4]) | level of alpha-synuclein staining in substantia nigra ([5]; ASIA + compound 3 mg/kg) | effect on preformed large foci of alpha-synuclein [6] | immobility in forced swim test ([7]; ASIA + compound 3 mg/kg) | success in forced swim test ([7]; ASIA + compound 3 mg/kg) | vigor in forced swim test ([7]; ASIA + compound 3 mg/kg) | major peak, blockade current (alpha-synuclein [8]) [pA] | nanopore profile (bumping peak / binding) (alpha-synuclein [8]) | major peak, blockade current, compound alone (alpha-synuclein [9]) | formation of foci delayed until (time after induction) [3] [h] | further results
Cn1c(=O)c2c(nc(CCCCCCNC3CCc4ccccc43)n2C)n(C)c1=O (racemic) [Compound C8-6-I] | essentially normal | by 12 hours the peripheral halo is restored | approximately 10 fold | 1 | 560000 | 53000 | 1 | 1 | 53000 | Y | ~10^5 M^−1 | reduced | can cause preformed large foci of alpha-synuclein to dissipate | improved | improved success | improved vigor | −68 | do not have a significant bumping peak |  |  | time of resumption of growth (yeast strain 2AS; [10]): ~8 h; time of resumption of growth (yeast strain 2AS; 10 micromolar compound added after 6 hours of 5 mM galactose and wash): about 6 hours; degree of protein aggregation, thioflavin S staining ([1]; ASIA + compound 3 mg/kg): decreases the degree of protein aggregation; degree of protein aggregation, thioflavin S staining ([1]; ASIA + compound 5 mg/kg): decreases the degree of protein aggregation; growth of 2AS yeast ([2]; 0.1 micromolar compound + 5 mM galactose): normal growth; level of alpha-synuclein staining in substantia nigra ([5]; ASIA + compound 5 mg/kg): reduced; fluorescence pattern after compound addition to cells with preformed foci [6, 10]: By 9 hours, the peripheral location is restored and the halo reappears; immobility in forced swim test ([7]; ASIA + compound 5 mg/kg): further improved; success in forced swim test ([7]; ASIA + compound 5 mg/kg): further improved success; vigor in forced swim test ([7]; ASIA + compound 5 mg/kg): further improved vigor
Cn1c(=O)c2c(nc(CCCCCCN3CCCC3c3cccnc3)n2C)n(C)c1=O (racemic) [Compound C8-6-N] | essentially normal | similar | approximately 10 fold | 1 | 480000 | 43000 | 1 | 1 | 43000 | Y | ~10^5 M^−1 |  | can cause preformed large foci of alpha-synuclein to dissipate |  |  |  | −55 | do not have a significant bumping peak |  |  | 
NC1Cc2ccccc2C1 [Compound 2-aminoindan, 2-aminoindan, reference compound] |  |  |  |  |  |  |  |  |  |  |  | considerably increased |  | significantly increases immobility | decreased success | decreased vigor |  |  |  |  | 
Cn1c(=O)c2c(ncn2C)n(C)c1=O [Caffeine, caffeine, reference compound] |  |  |  |  |  |  | 1 | 1 |  | Y |  |  |  |  |  |  |  |  | about −76 pA | 9 | 
CN(C)C(=N)N=C(N)N [Metformin, metformin, reference compound] |  |  |  |  |  |  | 1 | 3 |  | N |  |  |  |  |  |  |  |  | about −65 pA | 9 | growth of 2AS yeast ([2]; 1 micromolar compound + 100 micromolar galactose): rate of growth which is similar to that shown by the WT strain; Kd (alpha-synuclein [4]; ITC in 1.0M KCl): 109 nM; Kd (alpha-synuclein [4]; Table 2, ITC): 111 nM
